Assay results published in PubChem BioAssay AID1259407 (Chemical Carcinogenesis Research Information System (CCRIS), 2018).
Calls of active or inactive are those of the source. No rule for the calls is given here.

System: CCRIS mutagenicity, Ames/micronucleus/aberration tests
Experiment: CCRIS mutagenicity studies
[1] = Test System: AMES SALMONELLA TYPHIMURIUM, Strain/Indicator: TA97, Metabolic Activation: NONE, Method: STANDARD PLATE
[2] = Test System: AMES SALMONELLA TYPHIMURIUM, Strain/Indicator: TA97, Metabolic Activation: RAT, LIVER, S-9, AROCLOR 1254, Method: STANDARD PLATE
[3] = Test System: AMES SALMONELLA TYPHIMURIUM, Strain/Indicator: TA98, Metabolic Activation: NONE, Method: STANDARD PLATE
[4] = Test System: AMES SALMONELLA TYPHIMURIUM, Strain/Indicator: TA98, Metabolic Activation: RAT, LIVER, S-9, AROCLOR 1254, Method: STANDARD PLATE
[5] = Test System: AMES SALMONELLA TYPHIMURIUM, Strain/Indicator: TA100, Metabolic Activation: NONE, Method: STANDARD PLATE
[6] = Test System: AMES SALMONELLA TYPHIMURIUM, Strain/Indicator: TA100, Metabolic Activation: RAT, LIVER, S-9, AROCLOR 1254, Method: STANDARD PLATE
[7] = End Point: In vitro micronucleus, Test System: Chinese Hamster Ovary (CHO-WBL) cells, Metabolic Activation: None
[8] = Test System: AMES SALMONELLA TYPHIMURIUM, Strain/Indicator: TA1535, Metabolic Activation: NONE, Method: STANDARD PLATE
[9] = Test System: AMES SALMONELLA TYPHIMURIUM, Strain/Indicator: TA1535, Metabolic Activation: RAT, LIVER, S-9, AROCLOR 1254, Method: STANDARD PLATE
[10] = Test System: AMES SALMONELLA TYPHIMURIUM, Strain/Indicator: TA1537, Metabolic Activation: NONE, Method: STANDARD PLATE
[11] = Test System: AMES SALMONELLA TYPHIMURIUM, Strain/Indicator: TA1537, Metabolic Activation: RAT, LIVER, S-9, AROCLOR 1254, Method: STANDARD PLATE
[12] = Test System: AMES SALMONELLA TYPHIMURIUM, Strain/Indicator: TA1538, Metabolic Activation: NONE, Method: STANDARD PLATE
[13] = Test System: AMES SALMONELLA TYPHIMURIUM, Strain/Indicator: TA1538, Metabolic Activation: RAT, LIVER, S-9, AROCLOR 1254, Method: STANDARD PLATE
[14] = Test System: MOUSE LYMPHOMA, Strain/Indicator: L5178Y (TK+/TK-), Metabolic Activation: NONE, Method: SUSPENSION/PLATE
[15] = Test System: MOUSE LYMPHOMA, Strain/Indicator: L5178Y (TK+/TK-), Metabolic Activation: RAT, LIVER, S-9, AROCLOR 1254, Method: SUSPENSION/PLATE

Clc1ccc(N=Nc2ccc(Cl)c(Cl)c2)cc1Cl
mutagenic call [1]: inactive; negative | mutagenic call [2]: inactive; negative | mutagenic call [3]: inactive; negative | mutagenic call [4]: inactive; negative | mutagenic call [5]: inactive; negative | mutagenic call [6]: inactive; negative | mutagenic call (Test System: AMES SALMONELLA TYPHIMURIUM, Strain/Indicator: TA104, Metabolic Activation: NONE, Method: STANDARD PLATE): inactive; negative | mutagenic call (Test System: AMES SALMONELLA TYPHIMURIUM, Strain/Indicator: TA104, Metabolic Activation: RAT, LIVER, S-9, AROCLOR 1254, Method: STANDARD PLATE): inactive; negative | mutagenic call (Test System: CHINESE HAMSTER OVARY, Strain/Indicator: CHO-K1-BH4 (HGPRT), Metabolic Activation: NONE): inactive; negative | mutagenic call (Test System: CHINESE HAMSTER OVARY, Strain/Indicator: CHO-K1-BH4 (HGPRT), Metabolic Activation: RAT, LIVER, S-9, AROCLOR 1254): inactive; negative | mutagenic call (Test System: UDS RODENT HEPATOCYTES, Strain/Indicator: THY INCORP (NON-S-PHASE), Method: LIQUID SCINTILLATION COUNTING): active; positive

Cn1c(NS(=O)(=O)O)nc2c3nc(CO)cnc3ccc21
mutagenic call (Test System: AMES SALMONELLA TYPHIMURIUM, Strain/Indicator: TA98, Metabolic Activation: NONE, Method: PREINCUBATION): inactive; negative | mutagenic call (Test System: AMES SALMONELLA TYPHIMURIUM, Strain/Indicator: TA98, Metabolic Activation: RAT, LIVER, S-9, AROCLOR 1254, Method: PREINCUBATION): inactive; negative

C/C=C(\Cl)C1=CC(=O)[C@]23C[C@H]2C(C)(C)O[C@]3(O)C1=O
mutagenic call (Test System: AMES SALMONELLA TYPHIMURIUM, Strain/Indicator: TA97, Metabolic Activation: NONE): inactive; negative | mutagenic call (Test System: AMES SALMONELLA TYPHIMURIUM, Strain/Indicator: TA98, Metabolic Activation: NONE): inactive; negative | mutagenic call (Test System: AMES SALMONELLA TYPHIMURIUM, Strain/Indicator: TA100, Metabolic Activation: NONE): inactive; negative | mutagenic call (Test System: AMES SALMONELLA TYPHIMURIUM, Strain/Indicator: TA102, Metabolic Activation: NONE): active; positive

CC(C)C(=O)Nc1snc2cc(Cl)ccc12
mutagenic call [5]: inactive; negative | mutagenic call (Test System: AMES SALMONELLA TYPHIMURIUM, Strain/Indicator: TA100, Metabolic Activation: S-9, Method: STANDARD PLATE): inactive; negative

O[C@H]1C=Cc2c(ccc3ncccc23)[C@@H]1O
mutagenic call [6]: inactive; negative

C=C1C(=O)O[C@@H]2CCN3CC=C(COC(=O)[C@](C)(O)[C@H](C)[C@H]1C)[C@H]23
mutagenic call (Test System: AMES SALMONELLA TYPHIMURIUM, Strain/Indicator: TA100, Metabolic Activation: RAT, LIVER, S-9, SODIUM PHENOBARBITAL AND BETA-NAPHTHOFLAVONE, Method: PREINCUBATION): inactive; negative

COc1cccc2c1C(=N)c1c(O)c3c(c(O)c1C2=O)C[C@@](O)(C(C)=O)C[C@@H]3O[C@H]1C[C@H](N)[C@H](O)[C@H](C)O1
mutagenic call (Test System: CHINESE HAMSTER V-79, Strain/Indicator: V-79 (HGPRT)/6-THIOGUANINE, Metabolic Activation: NONE): active; positive

CCCOS(=O)(=O)OCCC
mutagenic call [7]: active; positive (p<0.01)

CCCOS(C)(=O)=O
mutagenic call (End Point: IN VITRO MICRONUCLEUS, Test System: MOUSE LYMPHOMA L5178Y CELLS, Metabolic Activation: NONE): active; positive | mutagenic call (End Point: IN VITRO MICRONUCLEUS, Test System: MOUSE LYMPHOMA L5178Y CELLS, Metabolic Activation: RAT, LIVER, S-9): inactive; negative; authors report results as weakly positive | mutagenic call [7]: active; positive (p<0.01) | mutagenic call [5]: active; positive | mutagenic call (Test System: AMES SALMONELLA TYPHIMURIUM, Strain/Indicator: TA100, Metabolic Activation: RAT, LIVER, S-9, Method: STANDARD PLATE): active; positive

Cn1c([N+](=O)[O-])cnc1C(O)c1cc(C(C)(C)C)cc(C(C)(C)C)c1O (stereo not drawn)
mutagenic call [3]: inactive; negative | mutagenic call [4]: inactive; negative | mutagenic call [5]: inactive; negative | mutagenic call [6]: inactive; negative | mutagenic call [8]: inactive; negative | mutagenic call [9]: inactive; negative | mutagenic call [10]: inactive; negative | mutagenic call [11]: inactive; negative | mutagenic call [12]: inactive; negative | mutagenic call [13]: inactive; negative

OC[C@H]1O[C@@H](n2cnc3c(NC[C@H](O)COc4cccc5ccccc45)ncnc32)[C@H](O)[C@@H]1O
mutagenic call [1]: inactive; negative | mutagenic call [2]: inactive; negative | mutagenic call [3]: inactive; negative | mutagenic call [4]: inactive; negative | mutagenic call [5]: inactive; negative | mutagenic call [6]: inactive; negative | mutagenic call [8]: inactive; negative | mutagenic call [9]: inactive; negative | mutagenic call [12]: inactive; negative | mutagenic call [13]: inactive; negative | mutagenic call (Test System: CHINESE HAMSTER OVARY, Strain/Indicator: CHO-KL-BH4 (HGPRT), Metabolic Activation: NONE): inactive; negative | mutagenic call (Test System: CHINESE HAMSTER OVARY, Strain/Indicator: CHO-KL-BH4 (HGPRT), Metabolic Activation: RAT, LIVER, S-9, AROCLOR 1254): inactive; negative | mutagenic call [14]: inactive; negative | mutagenic call [15]: active; positive

O=[N+]([O-])c1ccc2c(c1)nc(/C=N/OCc1ccccc1[N+](=O)[O-])n2Cc1ccccc1
mutagenic call [3]: active; positive | mutagenic call (Test System: AMES SALMONELLA TYPHIMURIUM, Strain/Indicator: TA98, Metabolic Activation: RAT, LIVER, S-9, PHENOBARBITAL AND BETA-NAPHTHOFLAVONE, Method: STANDARD PLATE): active; positive | mutagenic call [5]: active; positive | mutagenic call (Test System: AMES SALMONELLA TYPHIMURIUM, Strain/Indicator: TA100, Metabolic Activation: RAT, LIVER, S-9, PHENOBARBITAL AND BETA-NAPHTHOFLAVONE, Method: STANDARD PLATE): active; positive

N#CCCNCCC#N
mutagenic call (Test System: AMES SALMONELLA TYPHIMURIUM, Strain/Indicator: TA98, Metabolic Activation: HAMSTER, LIVER, S-9, AROCLOR 1254, Method: STANDARD PLATE): inactive; negative | mutagenic call [3]: inactive; negative | mutagenic call [4]: inactive; negative | mutagenic call (Test System: AMES SALMONELLA TYPHIMURIUM, Strain/Indicator: TA100, Metabolic Activation: HAMSTER, LIVER, S-9, AROCLOR 1254, Method: STANDARD PLATE): inactive; negative | mutagenic call [5]: inactive; negative | mutagenic call [6]: inactive; negative | mutagenic call (Test System: AMES SALMONELLA TYPHIMURIUM, Strain/Indicator: TA1535, Metabolic Activation: HAMSTER, LIVER, S-9, AROCLOR 1254, Method: STANDARD PLATE): inactive; negative | mutagenic call [8]: inactive; negative | mutagenic call [9]: inactive; negative | mutagenic call (Test System: AMES SALMONELLA TYPHIMURIUM, Strain/Indicator: TA1537, Metabolic Activation: HAMSTER, LIVER, S-9, AROCLOR 1254, Method: STANDARD PLATE): inactive; negative | mutagenic call [10]: inactive; negative | mutagenic call [11]: inactive; negative | mutagenic call (Test System: AMES SALMONELLA TYPHIMURIUM, Strain/Indicator: TA1538, Metabolic Activation: HAMSTER, LIVER, S-9, AROCLOR 1254, Method: STANDARD PLATE): inactive; negative | mutagenic call [12]: inactive; negative | mutagenic call [13]: inactive; negative | mutagenic call [14]: inactive; negative. reevaluation of results: negative | mutagenic call [15]: active; positive. reevaluation of results: equivocal
